US20090156565A1, “COMPOSITION AND USE THEREOF IN ENHANCING A THERAPEUTIC EFFECT OF AN ANTIEPILEPTIC DRUG” (priority 2004, published 2009)
Like-named read-outs stand apart in the source and are kept apart here.

Assays:
[1] = system: maximal electricroshock-induced seizures; details: cited from earlier work; for protective activity of clonazepam against maximum electroshock: co-administration
status epilepticus = test: Mifepristone given 15 minutes after onset of SE, diazepam after 1 hour, hourly monitoring for behavioral seizures; type: in vivo, rats; details: for rats that stopped seizing: 5 and 6 hours after DZ treatment
Description: In this experiment, mifepristone was given 15 minutes after onset of SE, but prior to administering the first dose of diazepam (DZ). Diazepam (7.5 mg/kg) was given after 1 hour of onset of SE. After DZ treatment, rats were monitored hourly for behavioral seizures.

[2] = system: pilocarpine induced status-epilepticus; test: Pilocarpine induced status-epilepticus in rats, mifepristone pretreatment, single diazepam dose, behavioral seizures (Racine stage); type: in vivo; details: not pretreated with mifepristone; single diazepam dose 7.5 mg/kg given 30 minutes after status-epilepticus; n=5
[3] = system: pilocarpine induced status-epilepticus; test: Pilocarpine induced status-epilepticus in rats, mifepristone pretreatment, repeated diazepam doses until seizures stop; type: in vivo, Adult male Sprague-Dawley rats; details: for cumulative diazepam dose required to stop behavioral seizures (mean ±SEM): diazepam 6 mg/kg 1 h after SE, then 3 mg/kg every two hours
Description: Mifepristone is a yellow powdery substance and is available commercially (Sigma, St. Louis, Mo.). Adult male Sprague-Dawley rats were implanted with electrodes in CA1 and frontal cortex. After one week of recovery, rats were put in recording cages and connected to EEG monitoring system for continuous video-EEG recording. Rats were then treated with mifepristone (25 mg/kg body weight) one hour before the pilocarpine injection. Thirty minutes later rats were treated with scopalamine (1 mg/kg body weight) to reduce peripheral side effects of pilocarpine. Rats were injected with pilocarpine (385 mg/kg body weight) 30 minutes after the scopalamine injection to induce status-epilepticus. One hour after declared status-epilepticus, rats were treated with diazepam (6 mg/kg) to stop the seizures. Every two hours rats were monitored for signs of behavioral seizures and if required they were injected with 3 mg/kg diazepam until they completely stop seizing. The process was repeated until the rats completely stopped seizing. […] This example was presented by inventors in an article titled “Effects of Glucocorticoid Receptor Activity on Diazepam Efficacy in Terminating Status-Epilepticus in Adult Rats,” Epilepsia Vol. 45, Suppl. 7, page 146, October, 2004.
The histogram represents mean (±SEM) cumulative diazepam dose (mg/kg body weight) required to stop behavioral seizures.

[4] = system: pilocarpine induced status-epilepticus; test: EEG (cortex and hippocampus) 24 hours after pilocarpine injection; type: in vivo; details: rats that received mifepristone versus rats without treatment

CC(=O)O[C@]1(C(C)=O)CC[C@H]2[C@@H]3C=C(Cl)C4=CC(=O)[C@@H]5C[C@@H]5[C@]4(C)[C@H]3CC[C@@]21C [CYP, cyproterone acetate]
protective activity of clonazepam against maximum electroshock ([1]; male mice): improved

CC/C(=C(\c1ccccc1)c1ccc(OCCN(C)C)cc1)c1ccccc1 [TXF, tamoxifen]
protective activity of clonazepam against maximum electroshock ([1]; female mice): improved

CN1C(=O)CN=C(c2ccccc2)c2cc(Cl)ccc21 [diazepam]
rats that stopped seizing (status epilepticus; diazepam 7.5 mg/kg, rats not receiving mifepristone): 33% | rats that stopped seizing by 4 hours [2]: 1/5 | cumulative diazepam dose required to stop behavioral seizures (mean ±SEM) ([3]; rats that did not receive mifepristone, ±0.5, n=20): 10.2 mg/kg

CC#C[C@]1(O)CC[C@H]2[C@@H]3CCC4=CC(=O)CCC4=C3[C@@H](c3ccc(N(C)C)cc3)C[C@@]21C [mifepristone, 17-beta-hydroxy-11-beta-(4-dimethyl-aminophenyl)-17-alpha(1-propynyl)-estra-4,9-dien-3-one]
rats that had stopped seizing, compared to rats that did not receive mifepristone (status epilepticus; 3 to 6 hours after DZ treatment, mifepristone 15 minutes after onset of SE, diazepam 7.5 mg/kg 1 hour after onset): significantly more | rats that stopped seizing (status epilepticus; mifepristone 15 minutes after onset of SE plus diazepam 7.5 mg/kg, p<0.018, Kaplan-Meier): 100% | effect on protective action of antiepileptic drugs against maximal electroshock-induced seizures ([1]; in combination with clonazepam, carbamazepine, phenobarbital, mice): failed to affect their protective action | effect on electrically-induced seizures ([1]; used alone, mice): no effect | frequency of spike-wave discharges and seizure recurrence [4]: lower frequency of spike-wave discharges and seizure recurrence | lower cumulative diazepam dose to terminate behavioral seizures compared to rats not pretreated with mifepristone ([3]; mifepristone pretreatment before pilocarpine, P<0.0005): 26.5% | cumulative diazepam dose required to stop behavioral seizures (mean ±SEM) ([3]; rats pretreated with mifepristone 25 mg/kg one hour before pilocarpine, ±0.41, n=14, p<0.0005): 7.5 mg/kg
